In test [1] the target is T1, ryanodine receptor 1 (RyR1) (Oryctolagus cuniculus, UniProt P11716).
T1 construct: full-length RyR1 purified from wild-type rabbit skeletal muscle; with FKBP12.6
The experiment in a line: protection from AziPm photolabelling ([…] propofol) in purified RyR1; the IC50 is from [3H]ryanodine binding in wild-type heavy SR vesicles at pCa […] (species not given, assumed).

Test [2] deals with T2, ryanodine receptor 1 (RyR1) (Homo sapiens, UniProt P21817).
T2 construct: wild-type human skeletal myotubes
The experiment in a line: Fura-2 Ca2+ imaging, inhibition of Ca2+ release induced by […] ryanodine. It counts as cell-based.

For test [3], the target named is T1, ryanodine receptor 1 (RyR1). The experiment in a line: photoaffinity labelling of purified RyR1-FKBP12.[…] with MS; the IC50 is from [3H]ryanodine binding in wild-type heavy SR vesicles at pCa […] (species not given, assumed).

What is called IC50 is the concentration that gives 50% inhibition.

T1 sequence (P11716 whole entry): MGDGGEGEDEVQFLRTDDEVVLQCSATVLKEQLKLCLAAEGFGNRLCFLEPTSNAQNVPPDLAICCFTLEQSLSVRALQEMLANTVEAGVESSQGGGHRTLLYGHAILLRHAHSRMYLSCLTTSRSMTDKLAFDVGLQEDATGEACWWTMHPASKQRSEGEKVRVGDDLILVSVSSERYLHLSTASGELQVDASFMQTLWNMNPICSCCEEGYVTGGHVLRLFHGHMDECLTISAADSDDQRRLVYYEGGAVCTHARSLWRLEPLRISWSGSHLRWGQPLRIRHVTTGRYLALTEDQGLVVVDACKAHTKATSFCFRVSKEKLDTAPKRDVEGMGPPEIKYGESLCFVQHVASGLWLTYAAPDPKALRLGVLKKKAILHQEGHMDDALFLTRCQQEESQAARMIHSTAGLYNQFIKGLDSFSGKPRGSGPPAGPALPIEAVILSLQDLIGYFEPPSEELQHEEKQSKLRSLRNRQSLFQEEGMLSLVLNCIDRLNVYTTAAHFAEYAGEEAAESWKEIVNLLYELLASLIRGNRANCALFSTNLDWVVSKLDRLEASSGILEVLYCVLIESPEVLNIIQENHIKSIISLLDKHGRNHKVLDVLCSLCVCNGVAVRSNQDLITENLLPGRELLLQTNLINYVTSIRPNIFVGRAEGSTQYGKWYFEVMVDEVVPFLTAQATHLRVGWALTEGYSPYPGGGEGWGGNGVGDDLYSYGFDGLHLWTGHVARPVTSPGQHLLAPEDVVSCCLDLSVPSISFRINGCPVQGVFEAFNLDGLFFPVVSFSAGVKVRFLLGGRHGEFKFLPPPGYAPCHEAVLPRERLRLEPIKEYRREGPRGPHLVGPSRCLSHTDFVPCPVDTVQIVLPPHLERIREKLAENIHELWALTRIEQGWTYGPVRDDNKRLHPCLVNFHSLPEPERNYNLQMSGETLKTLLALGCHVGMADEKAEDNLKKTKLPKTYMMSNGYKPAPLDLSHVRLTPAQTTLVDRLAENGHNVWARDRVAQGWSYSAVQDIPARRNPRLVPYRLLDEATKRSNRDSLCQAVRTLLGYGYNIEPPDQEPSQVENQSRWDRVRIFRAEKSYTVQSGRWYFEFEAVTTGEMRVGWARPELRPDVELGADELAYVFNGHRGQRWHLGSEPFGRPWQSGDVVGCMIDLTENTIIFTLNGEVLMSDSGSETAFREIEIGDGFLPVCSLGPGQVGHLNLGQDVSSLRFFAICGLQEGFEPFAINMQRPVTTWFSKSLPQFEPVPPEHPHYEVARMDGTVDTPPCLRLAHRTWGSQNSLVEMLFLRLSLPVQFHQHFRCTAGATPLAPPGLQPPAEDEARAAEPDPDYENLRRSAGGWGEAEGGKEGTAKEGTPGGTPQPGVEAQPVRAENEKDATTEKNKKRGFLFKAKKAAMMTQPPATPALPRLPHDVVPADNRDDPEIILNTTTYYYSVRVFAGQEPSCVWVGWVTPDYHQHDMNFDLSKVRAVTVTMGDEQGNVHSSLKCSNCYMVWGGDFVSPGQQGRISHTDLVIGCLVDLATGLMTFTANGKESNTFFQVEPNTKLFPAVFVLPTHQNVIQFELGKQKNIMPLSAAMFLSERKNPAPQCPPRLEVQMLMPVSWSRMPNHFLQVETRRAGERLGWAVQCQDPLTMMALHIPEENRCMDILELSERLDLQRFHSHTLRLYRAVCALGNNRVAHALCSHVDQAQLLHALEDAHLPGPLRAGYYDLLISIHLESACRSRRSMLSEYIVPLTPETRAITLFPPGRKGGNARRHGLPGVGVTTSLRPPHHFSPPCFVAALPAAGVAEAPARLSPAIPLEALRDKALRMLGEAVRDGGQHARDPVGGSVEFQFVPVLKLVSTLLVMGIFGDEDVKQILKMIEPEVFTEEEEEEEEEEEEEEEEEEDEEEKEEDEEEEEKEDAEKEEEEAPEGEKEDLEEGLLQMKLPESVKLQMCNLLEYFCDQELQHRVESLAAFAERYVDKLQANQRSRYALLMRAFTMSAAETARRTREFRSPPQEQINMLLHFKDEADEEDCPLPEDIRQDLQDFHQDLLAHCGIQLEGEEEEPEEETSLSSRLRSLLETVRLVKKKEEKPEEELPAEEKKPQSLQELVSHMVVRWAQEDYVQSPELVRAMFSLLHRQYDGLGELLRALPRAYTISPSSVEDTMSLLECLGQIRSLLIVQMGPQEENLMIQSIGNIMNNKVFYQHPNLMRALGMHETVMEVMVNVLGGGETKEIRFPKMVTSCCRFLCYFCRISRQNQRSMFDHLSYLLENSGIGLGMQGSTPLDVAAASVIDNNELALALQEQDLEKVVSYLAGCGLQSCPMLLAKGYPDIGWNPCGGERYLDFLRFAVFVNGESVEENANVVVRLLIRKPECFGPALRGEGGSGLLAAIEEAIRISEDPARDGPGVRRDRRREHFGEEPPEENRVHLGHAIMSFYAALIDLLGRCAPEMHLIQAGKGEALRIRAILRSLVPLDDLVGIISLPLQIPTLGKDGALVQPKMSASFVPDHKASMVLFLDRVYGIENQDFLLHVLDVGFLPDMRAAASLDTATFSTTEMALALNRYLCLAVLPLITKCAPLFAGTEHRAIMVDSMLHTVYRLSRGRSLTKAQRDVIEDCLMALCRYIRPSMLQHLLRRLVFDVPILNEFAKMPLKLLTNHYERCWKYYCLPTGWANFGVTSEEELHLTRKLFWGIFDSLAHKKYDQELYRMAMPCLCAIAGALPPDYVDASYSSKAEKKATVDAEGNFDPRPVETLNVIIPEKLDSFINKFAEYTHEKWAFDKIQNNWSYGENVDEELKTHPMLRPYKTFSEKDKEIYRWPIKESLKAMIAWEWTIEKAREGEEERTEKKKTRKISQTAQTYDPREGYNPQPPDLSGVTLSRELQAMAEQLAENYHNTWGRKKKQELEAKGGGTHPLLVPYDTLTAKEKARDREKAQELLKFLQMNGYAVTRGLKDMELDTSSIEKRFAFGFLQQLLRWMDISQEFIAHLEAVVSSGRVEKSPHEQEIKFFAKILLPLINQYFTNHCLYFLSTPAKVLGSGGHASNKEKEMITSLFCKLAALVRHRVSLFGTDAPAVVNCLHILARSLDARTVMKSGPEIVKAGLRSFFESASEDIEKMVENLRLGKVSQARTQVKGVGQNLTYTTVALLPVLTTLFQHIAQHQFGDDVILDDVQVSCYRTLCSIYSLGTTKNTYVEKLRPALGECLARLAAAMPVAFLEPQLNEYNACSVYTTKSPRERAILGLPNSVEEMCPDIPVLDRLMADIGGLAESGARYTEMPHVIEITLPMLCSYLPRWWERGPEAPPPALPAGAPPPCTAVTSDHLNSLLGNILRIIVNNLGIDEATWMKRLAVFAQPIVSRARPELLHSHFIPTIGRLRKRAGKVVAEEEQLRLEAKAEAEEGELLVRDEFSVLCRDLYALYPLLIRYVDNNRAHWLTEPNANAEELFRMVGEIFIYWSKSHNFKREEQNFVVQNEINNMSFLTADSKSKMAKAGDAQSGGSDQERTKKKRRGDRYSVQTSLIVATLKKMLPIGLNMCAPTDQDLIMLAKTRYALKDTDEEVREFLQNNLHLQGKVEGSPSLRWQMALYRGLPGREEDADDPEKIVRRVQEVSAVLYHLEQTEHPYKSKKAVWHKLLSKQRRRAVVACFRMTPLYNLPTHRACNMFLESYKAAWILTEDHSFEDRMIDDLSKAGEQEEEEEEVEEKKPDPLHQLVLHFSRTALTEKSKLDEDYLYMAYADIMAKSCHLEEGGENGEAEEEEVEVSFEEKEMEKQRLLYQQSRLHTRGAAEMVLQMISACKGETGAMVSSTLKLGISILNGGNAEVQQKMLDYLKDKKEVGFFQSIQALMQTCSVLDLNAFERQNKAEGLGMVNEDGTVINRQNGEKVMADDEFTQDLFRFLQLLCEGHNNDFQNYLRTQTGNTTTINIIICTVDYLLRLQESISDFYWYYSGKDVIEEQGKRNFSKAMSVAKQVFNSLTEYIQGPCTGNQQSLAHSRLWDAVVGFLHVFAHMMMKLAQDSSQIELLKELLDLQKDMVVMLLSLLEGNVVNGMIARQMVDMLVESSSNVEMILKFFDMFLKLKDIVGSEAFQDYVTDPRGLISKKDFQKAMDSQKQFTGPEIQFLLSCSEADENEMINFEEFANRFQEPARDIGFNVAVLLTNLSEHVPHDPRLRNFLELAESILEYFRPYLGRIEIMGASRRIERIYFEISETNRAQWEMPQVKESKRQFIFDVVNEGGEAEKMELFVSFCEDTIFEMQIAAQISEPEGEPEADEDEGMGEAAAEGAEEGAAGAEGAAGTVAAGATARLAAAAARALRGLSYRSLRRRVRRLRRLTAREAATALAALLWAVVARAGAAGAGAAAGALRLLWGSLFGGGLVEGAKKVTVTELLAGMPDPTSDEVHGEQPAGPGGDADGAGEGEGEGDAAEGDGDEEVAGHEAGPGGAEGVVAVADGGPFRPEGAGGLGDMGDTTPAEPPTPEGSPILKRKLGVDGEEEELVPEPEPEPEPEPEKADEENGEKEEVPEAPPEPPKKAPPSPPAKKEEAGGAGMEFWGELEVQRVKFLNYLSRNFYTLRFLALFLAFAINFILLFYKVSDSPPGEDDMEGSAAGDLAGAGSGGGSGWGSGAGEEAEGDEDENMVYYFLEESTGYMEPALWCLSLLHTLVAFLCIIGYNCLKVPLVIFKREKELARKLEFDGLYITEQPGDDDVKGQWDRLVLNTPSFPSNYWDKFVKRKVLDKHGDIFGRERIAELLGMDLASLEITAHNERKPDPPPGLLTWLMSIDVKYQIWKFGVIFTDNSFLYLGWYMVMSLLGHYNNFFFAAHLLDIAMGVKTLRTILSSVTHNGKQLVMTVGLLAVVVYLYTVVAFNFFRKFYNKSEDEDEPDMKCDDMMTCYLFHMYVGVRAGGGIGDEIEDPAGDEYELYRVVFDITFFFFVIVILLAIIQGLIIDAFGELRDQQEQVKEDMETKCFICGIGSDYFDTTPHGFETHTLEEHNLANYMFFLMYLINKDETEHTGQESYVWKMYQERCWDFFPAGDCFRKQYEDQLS

With `CC(C)c1cccc(C(C)C)c1O` [Propofol], the IC50 in test [1] stood at 5.8 µM; in test [2], 29.5 µM.
In test [3], `CC(C)c1ccc(C2(C(F)(F)F)N=N2)cc1O` [m-azipropofol] registered an IC50 of 6.9 µM.

Source of the values: article PMC11488158 (BJA: British Journal of Anaesthesia, 2024).
